In patent US20230414778A1, “COMBINATION OF ANTIBODY-DRUG CONJUGATE WITH ANTI-SIRPalpha ANTIBODY” (DAIICHI SANKYO COMPANY, LIMITED, priority 2020, published 2023):

Assays:
CT26.WT cells = test: Evaluation of in vivo ICD induction (vaccination effect, re-challenge); parameters: species or system BALB/c mice; settings: mice inoculated with drug-treated CT26.WT cells, n=6
Protocol: (§1) Cells of mouse colorectal cancer cell line CT26.WT were seeded in a cell-culture flask and cultured overnight. The supernatant was removed and the cells were washed twice with PBS. To induce ICD, compound (A) (4 μM) or MTX (1 μM) was added in a RPMI1640 culture solution containing 10% FBS (R10). Twenty four hours later, HMGB1 in the culture supernatant was measured in accordance with the method shown in Example 1 in order to confirm ICD induction.
For evaluating in vivo ICD, the culture supernatant was removed from each of the culture flasks treated with drugs and the cells were washed twice with PBS, and then cells were collected. The supernatant was removed and the cells were washed once with PBS to prepare a suspension containing 5.0×10^6 cells/mL. As a control, a suspension was prepared by adding CT26.WT cells, which were cultured in a RPMI1640 culture solution containing 10% FBS without a drug, in an amount of 5.0×10^6 cells/mL, in the same manner as above. After centrifugation, the supernatant was removed. The cells were subjected to a freeze-thaw process repeatedly three times and suspended again in PBS to obtain Necrotic cell death (NCD) cells.
The cells (5.0×10^6 cells) of each group mentioned above were subcutaneously inoculated into the right axilla of each of female 6 week-old BALB/c mice (BALB/c AnNCrlCrlj) (bred by CHARLES RIVER LABORATORIES JAPAN, INC.) (inoculation, Day 0). An anti-SIRPα antibody (clone: 5C12) or an anti-CD47 antibody (clone: MIAP410, manufactured by Bio X Cell, Inc.) was intraperitoneally administered at a dose of 10 mg/kg on Day 1 and 5 (two times in total). As a control, the same amount of PBS was administered. Seven days later, CT26.WT cells (3.0×10^6 cells) not treated with a drug were subcutaneously inoculated into the left axilla of each of the mice (re-challenge, Day 0). On Day 14, tumor volumes were measured to evaluate vaccination effect. Note that the number of mice per group was 6. The results of the NCD-PBS group and individual groups were compared in accordance with the Dunnett's test, P value was expressed to four decimal places. The results satisfying P<0.05 (two-sided test) were determined as being significant.

[1] = tested on: mouse colorectal cancer cell line CT26.WT; test: ICD induction evaluation (in vitro): ATP in culture supernatant; format: cell-based; settings: CT26.WT culture supernatant after 24 hours; MTX 0.4-6 μM vs control (0 μM); compound (A) 1-16 μM vs R10 or R10-DMSO
Protocol: In cancer cells treated with different compounds, the ATP level, and the expression level of HMGB1, which serve as an index of Immunogenic cell death (ICD), were measured. Cells of mouse colorectal cancer cell line CT26.WT were seeded in a 6-well plate and cultured overnight. After the supernatant was removed, the cells were washed twice with PBS. Compound (A) was dissolved in RPMI1640 culture solution containing 10% FBS (R10) to prepare solutions having a final concentration of 0, 1, 4 and 16 μM. As a positive control, Mitoxantrone (MTX) was dissolved in DMSO and added at a final concentration of 0.4, 1.5 and 6 μM. To the control (0 μM) herein, DMSO was added in the same amount as that of compound (A) (R10-DMSO). Twenty four hours later, the culture supernatant was collected, and the levels of ATP and HMGB1 were measured. The level of ATP was measured by adding the culture supernatant in a 96-well white plate, adding the same amount of Back titer-Glo (manufactured by Promega Corporation) and determining the amount of luminescence by a plate reader. The level of HMGB1 was detected by a HMGB1 ELISA-kit (manufactured by Shino-Test Corporation) in accordance with the Sandwich ELISA method. […] The absorbance at 405 nm was measured by a plate reader. […] The results satisfying P<0.05 (two-sided test) were determined as being significant.

[2] = tested on: mouse colorectal cancer cell line CT26.WT; test: ICD induction evaluation (in vitro): HMGB1 in culture supernatant (ELISA); format: cell-based; settings: for release of HMGB1, maximum, relative to control: CT26.WT culture supernatant after 24 hours, MTX 0.4-6 μM vs control (0 μM), compound (A) 1-16 μM vs R10 or R10-DMSO; for HMGB1 released in the culture supernatant (confirmation of ICD induction): Example 3, CT26.WT, compound (A) 4 μM or MTX 1 μM, 24 hours
Protocol: In cancer cells treated with different compounds, the ATP level, and the expression level of HMGB1, which serve as an index of Immunogenic cell death (ICD), were measured. Cells of mouse colorectal cancer cell line CT26.WT were seeded in a 6-well plate and cultured overnight. After the supernatant was removed, the cells were washed twice with PBS. Compound (A) was dissolved in RPMI1640 culture solution containing 10% FBS (R10) to prepare solutions having a final concentration of 0, 1, 4 and 16 μM. As a positive control, Mitoxantrone (MTX) was dissolved in DMSO and added at a final concentration of 0.4, 1.5 and 6 μM. To the control (0 μM) herein, DMSO was added in the same amount as that of compound (A) (R10-DMSO). Twenty four hours later, the culture supernatant was collected, and the levels of ATP and HMGB1 were measured. The level of ATP was measured by adding the culture supernatant in a 96-well white plate, adding the same amount of Back titer-Glo (manufactured by Promega Corporation) and determining the amount of luminescence by a plate reader. The level of HMGB1 was detected by a HMGB1 ELISA-kit (manufactured by Shino-Test Corporation) in accordance with the Sandwich ELISA method. In the plate provided in the kit, a test buffer was added, and thereafter, an HMGB1 standard solution diluted with the test buffer and the culture supernatant were added thereto. It was allowed to stand at 37° C. for 24 hours. After the supernatant was removed and the cells were washed five times with PBS/Tween 20 (200 μL/well), a secondary-antibody solution provided in the kit was added in an amount of 100 μL/well. It was allowed to stand at room temperature for 2 hours. After the supernatant was removed, the cells were washed five times with PBS/Tween 20 (200 μL/well). Thereafter, a color-producing solution provided in the kit was added in an amount of 100 μL/well. The plate was allowed to stand at room temperature for 30 minutes. A stop solution (100 μL/well) was added and stirred. The absorbance at 405 nm was measured by a plate reader. The results of the control group and compound (A) group were compared in accordance with the Dunnett's test. P value was expressed to four decimal places. The results satisfying P<0.05 (two-sided test) were determined as being significant.
as §1

[3] = PBS administration, re-challenge, Day 14
[4] = plus anti-SIRPα antibody (clone 5C12) 10 mg/kg i.p. Day 1 and 5

O=C1c2c(O)ccc(O)c2C(=O)c2c(NCCNCCO)ccc(NCCNCCO)c21 [MTX, Mitoxantrone, reference compound]
number of CR individuals (engraftment of re-challenged tumor rejected) (CT26.WT cells; [3]): 2/6 | number of CR individuals (engraftment of re-challenged tumor rejected) (CT26.WT cells; [4]): 4/6 | release of ATP, maximum, relative to control [1]: about 4 times | release of HMGB1, maximum, relative to control [2]: about 3 times | HMGB1 released in the culture supernatant (confirmation of ICD induction) [2]: released

CC[C@@]1(O)C(=O)OCc2c1cc1n(c2=O)Cc2c-1nc1cc(F)c(C)c3c1c2[C@@H](NC(=O)CO)CC3 [compound (A)]
number of CR individuals (engraftment of re-challenged tumor rejected) (CT26.WT cells; [3]): 5/6 | number of CR individuals (engraftment of re-challenged tumor rejected) (CT26.WT cells; plus anti-CD47 antibody (clone MIAP410) 10 mg/kg i.p. Day 1 and 5): all cases show CR | number of CR individuals (engraftment of re-challenged tumor rejected) (CT26.WT cells; [4]): all cases show CR | release of ATP, maximum, relative to control [1]: about 4.6 times | release of HMGB1, maximum, relative to control [2]: about 4.6 times | HMGB1 released in the culture supernatant (confirmation of ICD induction) [2]: released
